According to patent US6150385A, “1,3,4-thiadiazoles useful for the treatment of CMV infections” (Pharmacia & Upjohn Company, priority 1999, dated 2000):

target: T1, HCMV polymerase (Human cytomegalovirus, UniProt P08546); experiment: HCMV polymerase assay (scintillation proximity assay); format: biochemical; details: percentage of inhibition at 25 μM concentration in CMV polymerase assay
T1 construct: made in house; host or cells: SF-9 insect cells infected with recombinant baculovirus
Procedure, shortened: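 Baculovirus/SF-9-expressed HCMV polymerase in 5.4 mM HEPES pH 7.5, 11.7 mM KCl, 4.5 mM MgCl2, 0.36 mg/ml BSA, 90 nM 3H-dTTP, with or without 2 mM CHAPS. Started with 6 nM biotinylated poly(dA)-oligo(dT), 30 min at 25 or 37 °C, EDTA-stopped, read by streptavidin-SPA counting; % inhibition at 25 μM.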

T1 sequence (P08546 whole entry): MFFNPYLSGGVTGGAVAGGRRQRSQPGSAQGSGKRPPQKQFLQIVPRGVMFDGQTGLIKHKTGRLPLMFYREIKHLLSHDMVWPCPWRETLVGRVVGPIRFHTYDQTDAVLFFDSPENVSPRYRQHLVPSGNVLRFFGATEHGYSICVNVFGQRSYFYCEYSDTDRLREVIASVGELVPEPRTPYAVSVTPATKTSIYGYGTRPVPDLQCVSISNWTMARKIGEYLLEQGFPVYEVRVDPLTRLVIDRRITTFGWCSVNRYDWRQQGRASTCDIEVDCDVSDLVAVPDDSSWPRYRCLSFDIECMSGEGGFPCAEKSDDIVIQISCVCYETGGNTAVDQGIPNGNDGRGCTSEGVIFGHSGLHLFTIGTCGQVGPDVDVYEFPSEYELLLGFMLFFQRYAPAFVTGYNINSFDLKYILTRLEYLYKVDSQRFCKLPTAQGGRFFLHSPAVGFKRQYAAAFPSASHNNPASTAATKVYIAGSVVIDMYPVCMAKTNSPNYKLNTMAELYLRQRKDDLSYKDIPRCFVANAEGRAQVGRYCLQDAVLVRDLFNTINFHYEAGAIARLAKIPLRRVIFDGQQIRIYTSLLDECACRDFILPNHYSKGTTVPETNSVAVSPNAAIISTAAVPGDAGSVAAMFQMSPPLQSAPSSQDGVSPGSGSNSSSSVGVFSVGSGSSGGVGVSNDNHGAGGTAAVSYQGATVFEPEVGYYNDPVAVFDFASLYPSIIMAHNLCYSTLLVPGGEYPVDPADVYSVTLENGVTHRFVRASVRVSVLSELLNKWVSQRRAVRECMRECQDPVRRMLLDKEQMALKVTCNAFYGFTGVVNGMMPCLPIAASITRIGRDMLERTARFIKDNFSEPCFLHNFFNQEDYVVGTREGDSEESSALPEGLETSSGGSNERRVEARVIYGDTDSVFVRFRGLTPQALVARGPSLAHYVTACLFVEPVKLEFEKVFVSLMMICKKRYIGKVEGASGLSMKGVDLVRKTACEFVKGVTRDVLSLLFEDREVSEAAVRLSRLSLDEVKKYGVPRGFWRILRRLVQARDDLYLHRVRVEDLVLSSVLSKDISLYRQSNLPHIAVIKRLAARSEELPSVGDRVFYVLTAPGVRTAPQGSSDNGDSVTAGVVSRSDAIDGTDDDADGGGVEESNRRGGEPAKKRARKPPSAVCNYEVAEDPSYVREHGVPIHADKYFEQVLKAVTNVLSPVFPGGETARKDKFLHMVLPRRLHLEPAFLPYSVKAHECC

| Structure (SMILES) | inhibition at 25 µM [%] | % Inhib [%] |
| --- | --- | --- |
| CCCCCCCC/C=C/CCCCCCCC(=O)Nc1nnc(NCc2ccc(OC)c(OC)c2)s1 [compound 100, (E)-N-{5-[(3,4-dimethoxybenzyl)amino]-1,3,4-thiadiazol-2-yl}-9-octadecenamide] | 65.1 |  |
| O=C(Nc1nnc(NCc2cccc3ccccc23)s1)c1c(Cl)cccc1Cl [compound 101, 2,6-dichloro-N-{5-[(1-naphthylmethyl)amino]-1,3,4-thiadiazol-2-yl}benzamide] | 65 |  |
| N#Cc1ccc(C(=O)Nc2nnc(NCCc3cccs3)s2)cc1 [compound 102, 4-cyano-N-(5-{[2-(2-thienyl)ethyl]amino}-1,3,4-thiadiazol-2-yl)benzamide] | 64.9 |  |
| N#Cc1ccc(C(=O)Nc2nnc(NC3CCCCCC3)s2)cc1 [compound 103, 4-cyano-N-[5-(cycloheptylamino)-1,3,4-thiadiazol-2-yl]benzamide] | 64.9 |  |
| O=C(Nc1nnc(NC2CCCCCC2)s1)c1ccc([N+](=O)[O-])o1 [compound 104, N-[5-(cycloheptylamino)-1,3,4-thiadiazol-2-yl]-5-nitro-2-furamide] | 64.7 |  |
| CCCCCCCC/C=C/CCCCCCCC(=O)Nc1nnc(NCCc2ccccc2)s1 [compound 105, (E)-N-[5-(phenethylamino)-1,3,4-thiadiazol-2-yl]-9-octadecenamide] | 64.6 |  |
| CCCCCCCCCCCNc1nnc(NC(=O)CCCCCl)s1 [compound 106, 5-chloro-N-[5-(undecylamino)-1,3,4-thiadiazol-2-yl]pentanamide] | 64.2 |  |
| CCCCCCCC/C=C/CCCCCCCC(=O)Nc1nnc(NC2CCCc3ccccc32)s1 (stereo not shown) [compound 107, (E)-N-[5-(1,2,3,4-tetrahydro-1-naphthalenylamino)-1,3,4-thiadiazol-2-yl]-9-octadecenamide] | 63.8 |  |
| CCCCCCCC/C=C/CCCCCCCC(=O)Nc1nnc(NCCCCc2ccccc2)s1 [compound 108, (E)-N-{5-[(4-phenylbutyl)amino]-1,3,4-thiadiazol-2-yl}-9-octadecenamide] | 63.5 |  |
| CC(C)c1cc(C(C)C)c(C(=O)Nc2nnc(NCCC3CCCN3C)s2)c(C(C)C)c1 (stereo not shown) [compound 109, 2,4,6-triisopropyl-N-(5-{[2-(1-methyl-2-pyrrolidinyl)ethyl]amino]-1,3,4-thiadiazol-2-yl)benzamide] | 63.4 |  |
| O=C(/C=C/c1ccccc1Cl)Nc1nnc(NC2CCN(Cc3ccccc3)CC2)s1 [compound 110, (E)-N-{5-[(1-benzyl-4-piperidinyl)amino]-1,3,4-thiadiazol-2-yl}-3-(2-chlorophenyl)-2-propenamide] | 62.9 |  |
| O=C(Nc1nnc(NCC(c2ccccc2)c2ccccc2)s1)c1ccc(S(=O)(=O)F)cc1 [compound 111, 4-[({5-[(2,2-diphenylethyl)amino]-1,3,4-thiadiazol-2-yl}amino)carbonyl]benzenesulfonyl fluoride] |  | 62.6 |
| O=C(Nc1nnc(NCCCNC2CCCCC2)s1)c1ccc(C(F)(F)F)cc1 [compound 112, N-(5-{[3-(cyclohexylamino)propyl]amino}-1,3,4-thiadiazol-2-yl)-4-(trifluoromethyl)benzamide] | 62.5 |  |
| CCCCCCCC/C=C/CCCCCCCC(=O)Nc1nnc(NCC2CC2)s1 [compound 113, (E)-N-{5-[(cyclopropylmethyl)amino]-1,3,4-thiadiazol-2-yl}-9-octadecenamide] | 62.2 |  |
| O=C(/C=C/c1ccccc1)Nc1nnc(NCCSc2ccccc2)s1 [compound 114, (E)-3-phenyl-N-(5-{[2-(phenylsulfanyl)ethyl]amino}-1,3,4-thiadiazol-2-yl)-2-propenamide] | 62.1 |  |
| O=C(Nc1nnc(NC2CCc3ccccc32)s1)c1c(Cl)cccc1Cl (stereo not shown) [compound 115, 2,6-dichloro-N-[5-(2,3-dihydro-1H-inden-1-ylamino)-1,3,4-thiadiazol-2-yl]benzamide] | 62 |  |
| CCCCC(CC)CNc1nnc(NC(=O)c2ccc3c(c2)C(=O)OC3=O)s1 (stereo not shown) [compound 116, N-{5-[(2-ethylhexyl)amino]-1,3,4-thiadiazol-2-yl}-1,3-dioxo-1,3-dihydro-2-benzofuran-5-carboxamide] | 61.9 |  |
| O=C(/C=C/c1ccccc1Cl)Nc1nnc(NCc2ccc3c(c2)OCO3)s1 [compound 117, (E)-N-{5-[(1,3-benzodioxol-5-ylmethyl)amino]-1,3,4-thiadiazol-2-yl}-3-(2-chlorophenyl)-2-propenamide] | 61.5 |  |
| O=C(Nc1nnc(NCc2cccs2)s1)c1c(Cl)cccc1Cl [compound 118, 2,6-dichloro-N-{5-[(2-thienylmetyl)amino]-1,3,4-thiadiazol-2-yl}benzamide] | 61.2 |  |
| CCCCCCCC/C=C/CCCCCCCC(=O)Nc1nnc(NCc2cccc3ccccc23)s1 [compound 119, (E)-N-{5-[(1-naphthylmethyl)amino]-1,3,4-thiadiazol-2-yl}-9-octadecenamide] | 60.6 |  |

| Structure (SMILES) | inhibition at 25 µM [%] | % Inhib [%] |
| --- | --- | --- |
| CC(C)(C)OC(=O)CCNc1nnc(NC(=O)/C=C/c2ccccc2)s1 [compound 120, tert-butyl 3-[(5-{[(E)-3-phenyl-2-propenoyl]amino}-1,3,4-thiadiazol-2-yl)amino]propanoate] | 60 |  |
| CCCCCCCCCCCNc1nnc(NC(=O)c2ccc(F)cc2F)s1 [compound 121, 2,4-difluoro-N-[5-(undecylamino)-1,3,4-thiadiazol-2-yl]benzamide] | 60 |  |
| CCOc1ccc2ccccc2c1C(=O)Nc1nnc(NCc2ccc(OC)c(OC)c2)s1 [compound 122, N-{5-[(3,4-dimethoxybenzyl)amino]-1,3,4-thiadiazol-2-yl}-2-ethoxy-1-naphthamide] | 59.5 |  |
| CCCCCCCC/C=C/CCCCCCCC(=O)Nc1nnc(NCCNC(C)=O)s1 [compound 123, (E)-N-(5-{[2-(acetylamino)ethyl]amino}-1,3,4-thiadiazol-2-yl)-9-octadecenamide] | 59.2 |  |
| O=C(/C=C/c1ccccc1)Nc1nnc(NCCCNC2CCCCC2)s1 [compound 124, (E)-N-(5-{[3-(cyclohexylamino)propyl]amino}-1,3,4-thiadiazol-2-yl)-3-phenyl-2-propenamide] | 59.2 |  |
| NS(=O)(=O)c1ccc(CCNc2nnc(NC(=O)/C=C/c3ccccc3Cl)s2)cc1 [compound 125, (E)-N-(5-{[4-(aminosulfonyl)phenethyl]amino}-1,3,4-thiadizol-2-yl)-3-(2-chlorophenyl)-2-propenamide] | 58.9 |  |
| O=C(Nc1nnc(NCCCNC2CCCCC2)s1)c1ccc([N+](=O)[O-])o1 [compound 126, N-(5-{[3-(cyclohexylamino)propyl]amino}-1,3,4-thiadiazol-2-yl)-5-nitro-2-furamide] | 58.9 |  |
| N#Cc1ccc(C(=O)Nc2nnc(NCCCNC3CCCCC3)s2)cc1 [compound 127] | 58.5 |  |
| CC(C)c1cc(C(C)C)c(C(=O)Nc2nnc(NCCc3ccc(S(N)(=O)=O)cc3)s2)c(C(C)C)c1 [compound 128, N-(5-{[4-(aminosulfonyl)phenethyl]amino}1,3,4-thiadiazol-2-yl)-2,4,6-triisopropylbenzamide] | 58.3 |  |
| CCCCCCCC/C=C/CCCCCCCC(=O)Nc1nnc(NCCSCC)s1 [compound 129, (E)-N-(5-{[2-(ethylsulfanyl)ethyl]amino}1,3,4-thiadiazol-2-yl)-9-octadecenamide] | 58.3 |  |
| O=C(/C=C/c1ccccc1)Nc1nnc(NCCCN2CCCC2=O)s1 [compound 130, (E)-N-(5-{[3-(2-oxo-1-pyrrolidinyl)propyl]amino}-1,3,4-thiadiazol-2-yl)-3-phenyl-2-propenamide] | 58.2 |  |
| O=C(Nc1nnc(NCCCCc2ccccc2)s1)c1ccc([N+](=O)[O-])o1 [compound 131, 5-nitro-N-{5-[(4-phenylbutyl)amino]-1,3,4-thiadiazol-2-yl}-2-furamide] | 58 |  |
| CCOC(=O)N1CCC(Nc2nnc(NC(=O)c3c(Cl)cccc3Cl)s2)CC1 [compound 132, ethyl 4-({5-[(2,6-dichlorobenzoyl)amino]-1,3,4-thiadiazol-2-yl}amino)tetrahydro-1(2H)-pyridinecarboxylate] | 57 |  |
| O=C(/C=C/c1ccccc1)Nc1nnc(NCCCn2ccnc2)s1 [compound 133, (E)-N-(5-{[3-(1H-imidazol-1-yl)propyl]amino}-1,3,4-thiadiazol-2-yl)-3-phenyl-2-propenamide] | 57 |  |
| COc1ccc(CNc2nnc(NC(=O)c3ccc(I)cc3)s2)cc1OC [compound 134, N-{5-[(3,4-dimethoxybenzyl)amino]-1,3,4-thiadiazol-2-yl}-4-iodobenzamide] | 56.9 |  |
| O=C(Nc1nnc(NCCCN2CCCC2=O)s1)c1cccc([N+](=O)[O-])c1 [compound 135, 3-nitro-N-(5-{[3-(2-oxo-1-pyrrolidinyl)propyl]amino}-1,3,4-thiadiazol-2-yl)benzamide] | 56.6 |  |
| CCOc1ccc2ccccc2c1C(=O)Nc1nnc(NCc2cccc3ccccc23)s1 [compound 136, 2-ethoxy-N-{5-[(1-naphthylmethyl)amino]-1,3,4-thiadiazol-2-yl}-1-naphthamide] | 56.5 |  |
| O=C(Nc1nnc(NCCCNC2CCCCC2)s1)c1cccc([N+](=O)[O-])c1 [compound 137, N-(5-{[3-(cyclohexylamino)propyl]amino}-1,3,4-thiadiazol-2-yl)-3-nitrobenzamide] | 56.4 |  |
| O=C(Nc1nnc(NCCCCc2ccccc2)s1)c1ccc(C(F)(F)F)cc1 [compound 138, N-{5-[(4-phenylbutyl)amino]-1,3,4-thiadiazol-2-yl}-4-(trifluoromethyl)benzamide] | 56.2 |  |
| O=C(/C=C/c1ccccc1)Nc1nnc(NCc2ccccn2)s1 [compound 139, (E)-3-phenyl-N-{5-[(2-pyridinylmethyl)amino]-1,3,4-thiadiazol-2-yl}-2-propenamide] | 56.2 |  |
